From patent publication US8420653B2, “Pyrimidine compounds and their uses” (Orchid Chemicals & Pharmaceuticals Limited, priority 2008, dated 2013)
One block for each molecule: values may come before it.

Key:
PDE4 = tested on: T1, PDE4; assay: PDE4 activity (source human U937 cells); assay type: biochemical; settings: 10 μM, source human U937 cells
T1 construct: other: 10 μM, source human U937 cells; PDE4 at 10 μm
Description: PDE4 inhibition was measured by following a literature assay procedure (Cortizo J et al., Br J. Pharmacol., 1993, 108: 562-568. The assay method involves the following conditions.
Substrate: 1.01 μM [^3H] camp+camp
Pre-Incubation Time/Temperature: 15 minutes at 25° C.
Incubation Time/Temperature. 20 minutes at 25° C.
Incubation buffer: 50 mM Tris-HCl, pH 7.5, 5 mM MgCl2
Quantitation method: Quantitation of [^3H] Adenosine
Significance criteria: ≧50% of max stimulation or inhibition

[1] = tested on: purified recombinant COX-1; assay: COX-1 enzyme based assay; assay type: biochemical
Description: COX-1 and COX-2 enzyme based assays were carried out to check the inhibitory potential of the test compounds on the production of prostaglandin by purified recombinant COX-1/COX-2 enzyme (Proc. Nat. Acad. Sci. USA, 88, 2692-2696, 1991; J. Clin. Immunoassay 15, 116-120, 1992). In this assay, the potential of the test compound to inhibit the production of prostaglandin either by COX-1 or COX-2 from arachidonic acid (substrate) was measured. This was an enzyme based in-vitro assay to evaluate selective COX inhibition with good reproducibility.
Arachidonic acid was converted to PGH2 (Intermediate product) by COX1/COX-2 in the presence or absence of the test compound. The reaction was carried out at 37° C. and after 2 minutes it was stopped by adding 1M HCl. Intermediate product PGH2 was converted to a stable prostanoid product PGF2α by SnCl2 reduction. The amount of PGF2α produced in the reaction was inversely proportional to the COX inhibitory potential of the test compound. The prostanoid product was quantified via enzyme immunoassay (EIA) using a broadly specific antibody that binds to all the major forms of prostaglandin, using Cayman ELISA kit as per the procedure outlined by the manufacturer (Cayman Chemicals, Ann Arbor, USA).

ulcer formation = assay: Ulcerogenic potential; assay type: in vivo, male wistar; settings: oral, 4 hours after administration
Description: Ulcerogenic Potential In order to evaluate the compound's role on the ulcer formation, the animals were sacrificed and the stomach was taken out and flushed with 1% formalin. Animals (male wistar 200 g) were fasted for 18 hours with free access to water and the test compounds were suspended in 0.5% Tween 80 and 0.25% CMC (carboxymethylcellulose) solution to make a uniform suspension. After 4 hours of oral administration of test compounds, all the animals were sacrificed by cervical dislocation. The stomach was dissected carefully and filled up with a sterile saline solution and embedded in 6% formalin solution. […] The test compound treated groups were compared with the vehicle treated groups. […]

melting point: 228 to 232 °C
Compound: CS(=O)(=O)c1ccc(-c2nc(C(F)(F)F)nc(N3CCN(Cc4ccncc4)CC3)c2-c2ccccc2)cc1 [Example 46, 4-[4-(Methylsulfonyl)phenyl]-5-phenyl-6-[4-(pyridin-4-ylmethyl)piperazin-1-yl]-2-(trifluoromethyl)pyrimidine]

melting point: 168 to 174 °C
Compound: CS(=O)(=O)c1ccc(-c2nc(C(F)(F)F)nc(N3CCN(Cc4ccc([N+](=O)[O-])s4)CC3)c2-c2ccccc2)cc1 [Example 47, 6-[4-(Methylsulfonyl)phenyl]-4-{4-[(5-nitro-2-thienyl)methyl]piperazin-1-yl}-5-phenyl-2-(trifluoromethyl)pyrimidine]

% Inhibition in rEnzyme Assay COX-1 ([1]; 1 μM): 34.42% | % Inhibition in rEnzyme Assay COX-1 ([1]; 10 μM): 45.53%
Compound: NS(=O)(=O)c1cccc(-c2c(-c3ccc(F)cc3)nc(C(F)(F)F)nc2N2CCN(c3ncccn3)CC2)c1 [Example 54, 3-[4-(4-Fluorophenyl)-6-(4-pyrimidin-2-ylpiperazin-1-yl)-2-(trifluoromethyl)pyrimidin-5-yl]benzenesulfonamide]

melting point: 207 to 210 °C
Compound: CS(=O)(=O)c1ccc(-c2nc(C(F)(F)F)nc(Cl)c2-c2ccc(S(=O)(=O)Cl)cc2)cc1 [Example 3, 4-{4-chloro-6-[4-(methylsulfonyl)phenyl]-2-(trifluoromethyl)pyrimidin-5-yl}benzenesulfonyl chloride]

melting point: 230 to 235 °C
Compound: CC(=O)NS(=O)(=O)c1ccc(-c2c(Cl)nc(C(F)(F)F)nc2-c2ccc(S(C)(=O)=O)cc2)cc1 [Example 17, N-[(4-{4-chloro-6-[4-(methylsulfonyl)phenyl]-2-(trifluoromethyl)pyrimidin-5-yl}phenyl)sulfonyl]acetamide]

melting point: 240 to 242 °C
Compound: O=C(NNc1nc(C(F)(F)F)nc(-c2ccncc2)c1-c1ccc(F)cc1)C(F)(F)F [Example 14, 2,2,2-trifluoro-N′-[5-(4-fluorophenyl)-6-pyridin-4-yl-2-(trifluoromethyl)pyrimidin-4-yl]acetohydrazide]

melting point: 226 to 230 °C
Compound: CNS(=O)(=O)c1ccc(-c2c(Cl)nc(C(F)(F)F)nc2-c2ccc(S(C)(=O)=O)cc2)cc1 [Example 4, 4-{4-chloro-6-[4-(methylsulfonyl)phenyl]-2-(trifluoromethyl)pyrimidin-5-yl}-N-methylbenzenesulfonamide]
Ulcer incidence at 5 mg/kg (ulcer formation): Nil

melting point: 204 to 206 °C
Compound: CS(=O)(=O)c1ccc(-c2nc(C(F)(F)F)nc(OS(=O)(=O)c3cccc4ccccc34)c2-c2ccccc2)cc1 [Example 18, 6-[4-(methylsulfonyl)phenyl]-5-phenyl-2-(trifluoromethyl)pyrimidin-4-yl napthalenesulfonate]

% Inhibition in rEnzyme Assay COX-1 ([1]; 1 μM): 10.22% | % Inhibition in rEnzyme Assay COX-1 ([1]; 10 μM): 9.59%
Compound: NS(=O)(=O)c1cccc(-c2c(-c3ccccc3)nc(C(F)(F)F)nc2N2CCN(c3ccccn3)CC2)c1 [Example 58]

melting point: 229 to 233 °C
Compound: CS(=O)(=O)c1ccc(-c2nc(C(F)(F)F)nc(N3CCN(c4ccccn4)CC3)c2-c2ccccc2)cc1 [Example 49, 4-[4-(Methylsulfonyl)phenyl]-5-phenyl-6-(4-pyridin-2-yl-piperazin-1-yl)-2-(trifluoromethyl)pyrimidine]

% Inhibition in rEnzyme Assay COX-1 ([1]; 10 μM): 5.7%
Compound: NS(=O)(=O)c1cccc(-c2c(-c3ccccc3)nc(C(F)(F)F)nc2N2CCN(c3ncccn3)CC2)c1 [Example 57]

% Inhibition in rEnzyme Assay COX-1 ([1]; 1 μM): 46.29% | % Inhibition in rEnzyme Assay COX-1 ([1]; 10 μM): 56.85%
Compound: NS(=O)(=O)c1cccc(-c2c(-c3ccc(F)cc3)nc(C(F)(F)F)nc2N2CCN(c3ccccn3)CC2)c1 [Example 53, 3-[4-(4-Fluorophenyl)-6-(4-pyridin-2-ylpiperazin-1-yl)-2-(trifluoromethyl)pyrimidin-5-yl]benzenesulfonamide]

% Inhibition in rEnzyme Assay COX-1 ([1]; 1 μM): 8.27% | % Inhibition in rEnzyme Assay COX-1 ([1]; 10 μM): 7.1%
Compound: NS(=O)(=O)c1cccc(-c2c(-c3ccccc3)nc(C(F)(F)F)nc2N2CCNCC2)c1 [Example 51, 3-[4-Phenyl-6-piperazin-1-yl-2-(trifluoromethyl)pyrimidin-5-yl]benzenesulfonamide]

melting point: 203 to 206 °C
Compound: CS(=O)(=O)c1ccc(-c2nc(C(F)(F)F)nc(NN)c2-c2ccc(S(=O)(=O)NN)cc2)cc1 [Example 7, 4-{4-hydrazino-6-[4-(methylsulfonyl)phenyl]-2-(trifluoromethyl)pyrimidin-5-yl}benzenesulfonohydrazide]

% Inhibition in rEnzyme Assay COX-1 ([1]; 1 μM): 33.84% | % Inhibition in rEnzyme Assay COX-1 ([1]; 10 μM): 50.41%
Compound: CNS(=O)(=O)c1ccc(-c2c(N)nc(C(F)(F)F)nc2-c2ccc(S(C)(=O)=O)cc2)cc1 [Example 2, 4-{4-Amino-6-[4-(methylsulfonyl)phenyl]-2-(trifluoromethyl)pyrimidin-5-yl}-N-methylbenzenesulfonamide]

Continued, molecule first:

Compound: Fc1ccc(-c2nc(C(F)(F)F)nc(NC3CC3)c2-c2ccccc2)cc1 [Example 175, N-Cyclopropyl-6-(4-fluorophenyl)-5-phenyl-2-(trifluoromethyl)pyrimidin-4-amine]
PDE4 inhibition at 10 μM (%) (PDE4): 88%

Compound: NS(=O)(=O)c1cccc(-c2c(-c3ccc(F)cc3)nc(C(F)(F)F)nc2N2CCN(S(=O)(=O)C(F)(F)F)CC2)c1 [Example 77, 5-(3-Aminosulfonylphenyl)-4-(4-fluorophenyl)-2-(trifluoromethyl)-6-{4-[(trifluoromethyl)sulfonyl]piperazin-1-yl}pyrimidine]
PDE4 inhibition at 10 μM (%) (PDE4): 94%

Compound: N#CCCN1CCN(c2nc(C(F)(F)F)nc(-c3ccc(F)cc3)c2-c2cccc(S(N)(=O)=O)c2)CC1 [Example 100, 3-{4-[4-(2-cyanoethyl)piperazin-1-yl]-6-(4-fluorophenyl)-2-(trifluoromethyl)pyrimidin-5-yl}benzenesulfonamide]
PDE4 inhibition at 10 μM (%) (PDE4): 92%

Compound: NS(=O)(=O)c1cccc(-c2nc(C(F)(F)F)nc(-n3ccnc3)c2-c2ccccc2)c1 [Example 167, 3-[4-(1H-imidazol-1-yl)-5-phenyl-2-(trifluoromethyl)pyrimidin-6-yl]benzenesulfonamide]
PDE4 inhibition at 10 μM (%) (PDE4): 82%

Compound: NS(=O)(=O)c1cccc(-c2c(-c3ccccc3)nc(C(F)(F)F)nc2N2CCC(=O)CC2)c1 [Example 179, 3-[6-Phenyl-4-(4-oxopiperidin-1-yl)-2-(trifluoromethyl)pyrimidin-5-yl]benzenesulfonamide]
PDE4 inhibition at 10 μM (%) (PDE4): 84%

Compound: NS(=O)(=O)c1cccc(-c2c(-c3ccccc3)nc(C(F)(F)F)nc2N2CCN(C(=O)C(F)(F)F)CC2)c1 [Example 173, 3-{6-Phenyl-4-[4-(trifluoroacetyl)piperazin-1-yl]-2-(trifluoromethyl)pyrimidin-5-yl}benzenesulfonamide]
PDE4 inhibition at 10 μM (%) (PDE4): 87%

Compound: NS(=O)(=O)c1cccc(-c2c(-c3ccccc3)nc(C(F)(F)F)nc2N2CCN(c3ccc(C(F)(F)F)cn3)CC2)c1 [Example 116, 3-[6-{4-[5-(trifluoromethyl)pyridin-2-yl]piperazin-1-yl}-4-phenyl-2-(trifluoromethyl)pyrimidin-4-yl]benzenesulfonamide]
% Inhibition in rEnzyme Assay COX-1 ([1]; 1 μM): 6.29% | % Inhibition in rEnzyme Assay COX-1 ([1]; 10 μM): 19.24%

Compound: CNc1nc(C(F)(F)F)nc(-c2ccc(S(C)(=O)=O)cc2)c1-c1ccc(S(=O)(=O)NC)cc1 [Example 5, 4-{4-(Methylamino)-6-[4-(methylsulfonyl)phenyl]-2-(trifluoromethyl)pyrimidin-5-yl}-N-methylbenzenesulfonamide]
Ulcer incidence at 5 mg/kg (ulcer formation): Nil

Compound: FC(F)(F)c1nc(-c2ccccc2)c(-c2ccccc2)c(N2CCN(c3ccccn3)CC2)n1 [Example 48, 4,5-diphenyl-6-(4-pyridin-2-yl-piperazin-1-yl)-2-(trifluoromethyl)pyrimidine]
melting point: 165 to 167 °C

Compound: NS(=O)(=O)c1cccc(-c2c(-c3ccc(F)cc3)nc(C(F)(F)F)nc2N2CCN(C(=O)C(F)(F)F)CC2)c1 [Example 109, 3-{6-(4-Fluorophenyl)-4-[4-(trifluoroacetyl)piperazin-1-yl]-2-(trifluoromethyl)pyrimidin-5-yl}benzenesulfonamide]
PDE4 inhibition at 10 μM (%) (PDE4): 90%
